Assay results as given in patent publication US11492636B2, “Modified bialaphos resistance acetyltransferase compositions and uses thereof” (Whitehead Institute for Biomedical Research, priority 2016, dated 2022).
Several values for one entry are separate records, joined by “and”; a condition that tells them apart may be missing. Identical values can stand only once.

Molecular target: T1, BAR (Streptomyces hygroscopicus, UniProt P16426)
T1 construct: made in house; host or cells: E. coli BL21(DE3)
T1 sequence (P16426 whole entry): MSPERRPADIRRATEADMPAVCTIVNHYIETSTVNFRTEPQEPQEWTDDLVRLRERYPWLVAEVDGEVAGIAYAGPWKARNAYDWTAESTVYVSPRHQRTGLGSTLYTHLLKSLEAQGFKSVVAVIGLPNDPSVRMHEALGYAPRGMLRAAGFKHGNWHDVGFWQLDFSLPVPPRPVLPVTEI
Test: In vitro enzyme kinetic assays of recombinant BAR against native and non-native substrates
Type: biochemical
Conditions: for in vitro substrate of BAR (N-acetyltransferase activity): recombinant BAR, up to 8.4 mM substrate; for KM values of BAR against aminoadipate and tryptophan (estimated): substrates reached solubility limit before saturation
Text: The BAR coding sequence was amplified by PCR (KaPa HiFi HotStart polymerase; KaPa Biosystems) from genomic DNA extracted from homozygous plants of the SAIL line SAIL_1165_B02 using primers SAIL_BAR_F_pPROEX and SAIL_BAR_R_pPROEX (see Table 3) and then cloned into pProEX Hta (Invitrogen) via EcoRI and HindIII resulting in a 6×His-BAR fusion construct. 6×His-BAR was expressed in E. coli BL21(DE3) grown in Luria-Bertani medium. At an optical density at 600 nm of 0.6, protein expression was induced with 1.0 mM isopropylthio-β-galactoside (IPTG), and cells were grown at 37° C. for 2.5 h. Cells from a 200 mL culture were harvested by centrifugation and resuspended in 8 mL binding buffer (20 mM HEPES-KOH pH 7.4, 0.5 M NaCl, 10% (v/v) glycerol, 20 mM imidazole) supplemented with 3 U mL^−1 DNase (Promega), 2 mM MgCl2 and 1/10 of a tablet containing a protease inhibitor cocktail (Complete; Roche Applied Science). Cell lysis was performed by use of a high-pressure cell breaker (Cell Disruption System; Constant Systems) at a pressure of 150 MPa. All the following steps were carried out at 4° C. The lysate was centrifuged (16,000 g, 20 min) and a 50% (v/v) slurry of Ni^2+-ion charged agarose beads (Ni Sepharose 6 Fast Flow; GE Healthcare) in binding buffer was added to the supernatant (0.25 mL 50% slurry per mL of supernatant). The mix was incubated for 1 h with slight shaking and then loaded on a Poly-Prep® chromatography column (0.8×4 cm; Bio-Rad). The beads were washed with 10 mL of binding buffer and 3 mL of wash buffer (20 mM HEPES-KOH pH 7.4, 0.5 M NaCl, 10% (v/v) glycerol, 40 mM imidazole) by gravity flow before elution with 3 mL of elution buffer (20 mM HEPES-KOH pH 7.4, 0.5 M NaCl, 10% (v/v) glycerol, 500 mM imidazole). The buffer was exchanged with storage buffer (20 mM HEPES-KOH pH 7.4, 0.5 M NaCl, 10% (v/v) glycerol, 1 mM dithiothreitol) using an ultra-centrifugal filter (MWCO 10,000; Vivaspin 6, Sartorius Stedim Biotech). The purity of the protein preparation was assessed by SDS-PAGE and the concentration was determined by using a NanoDrop 2000 UV-VIS spectrometer (Thermo Scientific).
Enzyme assays were carried out in 10 mM HEPES-KOH (pH 7.4), 20 mM MgCl2, and 2 mM acetyl-CoA (Sigma-Aldrich; final volume 25 μl). Before determining the kinetics of BAR with different substrates, time-dependent activity of the purified protein was tested at substrate concentrations of 200 μM L-phosphinothricin (glufosinate ammonium, considered as a 1:1 mixture of L- and D-enantiomers; Sigma-Aldrich) or 400 μM (L-aminoadipate and L-tryptophan; Sigma-Aldrich). Reactions were initiated by the addition of purified BAR at 0.03 μM (assays with L-phosphinothricin) or 20 μM (assays with aminoadipate or tryptophan) and incubated at 25° C. for the indicated times (FIGS. 8A-8D). Reactions were stopped by the addition of three volumes of methanol supplemented with 0.5% (v/v) formic acid. Likewise, substrate concentration-dependence was determined by incubating assays for 7.5 min (assays with L-phosphinothricin) or 2 h (assays with aminoadipate or tryptophan; FIG. 3). Control assays (FIG. 3B) were performed with aminoadipate and tryptophan at 8.4 mM, but in the absence of BAR. In addition, D-tryptophan (Sigma-Aldrich) was tested as potential substrate at 8.4 mM (FIG. 3B).
In vitro assays with aminoadipate and tryptophan as substrate were analyzed by LC-MS as described above. In vitro assays with L-phosphinothricin were analyzed by LC-MS as described above, but using a normal-phase chromatography system as follows: an 150 mm amide column (ACQUITY UPLC™ BEH amide, 1.7 μm, 2.1×150 mm, Waters) was developed using LC-MS solvents (Chemie Brunschwig) with a gradient (flow rate of 0.4 mL min^−1) of solvent B (acetonitrile with 0.1% (v/v) formic acid) in solvent A (water with 0.1% (v/v) formic acid) as follows (all (v/v)): 95% for 0.5 min, 95% to 30% in 12 min, 30% for 2 min, 30% to 95% in 1 min and 95% for 5 min. […]

SMILES | catalytic activity of BAR toward aminoadipate compared with tryptophan (in vitro) | in vitro substrate of BAR (N-acetyltransferase activity) | KM values of BAR against aminoadipate and tryptophan (estimated) | Km (N-acetylation by recombinant BAR, Michaelis-Menten kinetics, read-out: apparent KM)
NC(CCCC(=O)O)C(=O)O [aminoadipate, L-aminoadipate] | relatively higher catalytic activity | in vitro substrates of BAR | at least in the millimolar range | 
CP(=O)(O)CC[C@H](N)C(=O)O [phosphinothricin, reference compound] |  |  |  | ~39 µM and 39 µM
N[C@@H](Cc1c[nH]c2ccccc12)C(=O)O [tryptophan, L-tryptophan] |  | in vitro substrates of BAR | at least in the millimolar range | 
